These results are taken from patent US20100129428A1, “SUPRA MOLECULAR CONSTRUCT FOR DELIVERY OF INTERFERON TO A MAMMAL” (SDG, Inc., priority 2005, published 2010).

One assay relates to hepatitis C virus. Conditions: chronic hepatitis C; treatment with interferon alone; cited from earlier work.
The test system of assay [1] is double stranded RNA dependent protein kinase (PKR) gene. Nature of the assay: Induction of PKR mRNA in liver and spleen of mice, real time quantitative PCR. Format: in vivo, mouse. On the procedure: The efficacy of HDV-interferon alpha was evaluated in a mouse model having a genetic marker response to the hepatic effect of interferon. C57B16 mice were obtained from Jackson Laboratory and a breeding colony was established at Cleveland MetroHealth Center, Cleveland, Ohio. Mice were obtained from the breeding colony. Two groups of mice, a test group and a control group, were treated. The test group received Interferon+HDV, while the control group received Interferon alone. HDV-Interferon comprised 100 mcg HDV to 10 mcg Interferon alpha. HDV was supplied by Hepasome Pharmaceuticals and Roeferon was the source of the interferon alpha. The HDV and interferon alpha were allowed to equilibrate for 12 hours prior to injection into the mice. Mice from both groups were dosed with 100,000 U/kg body wt. To test the timing of response to IFN, Roferon was subcutaneously injected into the mice. The mice were sacrificed at 6 hours after dosing. The spleen and liver of the sacrificed […] were obtained for analysis. […] The assay used real time quantitative PCR (polymerase chain reaction) to assay the level of PKR messenger ribonucleic acid (mRNA). […] The produced cDNAs were subjected to semi-quantitative PCR, the 6 hour time point was selected for the HDV experiments. […] Real time quantitative PCR was performed on the produced cDNAs using cybr green technology. […]

Turning to interferon alpha, the sustained response entry in the assay on hepatitis C virus is “less than 15 % of subjects”. In assay [1] (PKR mRNA, C57B16 mice, 100,000 U/kg body wt, subcutaneous, 6 hours after dosing, FIG. 12a), the “relative expression level in the spleen compared to the relative expression level in the liver” value is “approximately twice”. In addition, the “increase in PKR activation relative to a baseline” value in assay [1] (hepatic PKR activation, mouse model, FIG. 13) is given as approximately 5 fold.
